“Also recorded” adds a separate entry of the source.
How the values were obtained:
[1] = test system: rat model of focal cerebral ischemia (tMCAO); assay: Infarct and inflammation after tMCAO (TTC, Nissl, GFAP, Iba1); assay type: in vivo; details: for infarct size by TTC staining: 24 hours after a single dose administered 48 hours after tMCAO
Description: Assessment of infarct and inflammation. For immunohistochemical assessments 6 random animals were chosen from each group by a treatment-blinded observer to reduce the chance of bias. Nissl staining was performed using thionin. Rats were deeply anesthetized with isoflurane and transcardially perfused with saline and 4% formaldehyde. Brains were removed and post fixed for 48 hours. Coronal sections were made at […] through the region of the middle cerebral artery, affixed to gelatin-coated glass slides and stained. Four sections representing Bregma levels ˜0.7, 0.2, −0.8, and −2.12 were assessed for each animal. Sections were scanned with a 4× objective using a Keyence BZ-X800 microscope and analyzed using Image J. Infarct assessment was performed by a treatment blinded observer two separate times and the average infarct was assessed by determining the extent of histologically healthy tissue using the method of Swanson (Swanson et al., 1990).
The inflammatory response to stroke was observed using immunohistochemistry for glial fibrillary acidic protein (GFAP, Neomarkers RB-087, 1:5000) to assess astrogliosis and ionized calcium binding adapter molecule 1 (Iba1 Fujifilm Wako #019-19741, 1:5000), followed by a biotinylated secondary antibody (Jackson Immuno Research #711-065-152, 1:400). […] Area of staining the striatum, cortex, and dorsal hippocampus was assessed by a treatment-blinded observer using wide-field images captured with a 4× objective using a Keyence BZ-X800. The percent area above threshold was determined with Image J. Images were processed by a treatment-blinded observer using ImageJ by converting images to 8 bits, manually outlining the areas of interest using the corpus callosum to define the boundaries of the striatum and cortex, subtracting background and subjecting the images to auto thresholding. When more than one staining run was required to process tissue, the mean gray values of a standard ROI in the contralateral cortex were used to normalize between the runs.
Rats were sacrificed under isoflurane anesthesia 2, 6, or 24 hours after dosing, and brains were removed to assess protein expression in the ischemic and contralateral cortex by immunoblotting. Brains were rapidly removed, chilled for 2 min in ice-cold saline, and sliced into 2 mm coronal slices with a brain matrix for rapid 2,3,5 triphenyltetrazolium chloride (TTC) staining. Sections were immersed in 1% TTC for 1 minute at room temperature to reveal the extent of the infarct. Cortical penumbra tissue was collected, snap frozen, and stored at −80° C. for subsequent western blotting. Protein was extracted from tissue using T-PER™ reagent with HALT protease inhibitor (Thermo-Pierce), and concentrations were determined with the PIERCE® BCA assay (Thermo-Pierce). Protein was separated on 4-20% SDS-PAGE gels (BioRad) and transferred to nitrocellulose. Blots were probed with primary antibodies for BDNF (Abcam ab226842; 1:1000) and goat anti-rabbit-HRP secondary (Thermo 32260; 1:10,000). Bands were visualized by ECL with PIERCE® SUPERSIGNAL® West Dura Femto (Thermo-Pierce) reagent using a UVP EpiChemi3. Density was assessed with Image J and normalized to β-actin (Thermo MA1-91399; 1:1000).

[2] = test system: rat model of focal cerebral ischemia (tMCAO); assay: BrdU cell proliferation in the brain after tMCAO; assay type: in vivo
Description: Two days before tMCAO rats were trained to lick 5% sucrose from a 1 ml syringe. After behavioral assessment on Day 1 after tMCAO, rats were randomly assigned to 4 groups in a blinded fashion. Groups included sucrose Vehicle, or 45, 68 or 135 mg/kg oxeladin. Oxeladin was prepared in 5% sucrose and provided to rats from the end of a 1 ml syringe. Starting 48 hours after stroke, rats were administered treatments daily from day 3 to day 14. On days 3-14 rats were injected i.p. with 50 mg/kg bromodeoxyuridine (BrdU; Fisher Bioreagents). At the conclusion of the study, rats were euthanized under deep isoflurane anesthesia. Rats were transcardially perfused with cold saline and either decapitated for brain collection and flash freezing of brain tissue or transcardially perfused with 4% formaldehyde for immunohistochemical studies.
Actions of oxeladin on proliferation in the brain. Fourteen days after tMCAO, rats were transcardially perfused with saline and 4% formaldehyde, as described above. Brains were removed and post-fixed for 48 hours in 4% formaldehyde and then moved to phosphate buffer. Brains were blocked and serial […] coronal sections through the subventricular zone (SVZ) and dorsal hippocampus (HP) were made with a cryostat. Sections were affixed to glass slides and stored at −20° C. until processed. Sections were subjected to antigen retrieval with 10 mM sodium citrate (pH 6.0). Slides were immersed in preheated buffer, placed in a commercial vegetable steamer at 99° C. for 15 minutes and allowed to cool before processing. Immunohistochemistry was performed for the detection of BrdU with a monoclonal primary antibody (Cell Signaling Technology #5292S, 1:5000), followed by a biotinylated secondary antibody (Jackson Immuno Research #715066151, 1:400). […] In the striatum and cortex, the percent area containing BrdU positive cells was assessed in wide-field images captured with a 4× objective using a Keyence BZ-X800 as described above. In the dentate gyrus, individual BrdU+ cells were counted by a treatment-blinded observer in 3 sections per rat (n=6/group). In the SVZ, BrdU+ staining was assessed by a treatment-blinded observer using NEUROLUCIDA® software (Microbrightfield) to map positive cells on the ischemic side (n=4-6).

[3] = treatment starting 48 hours after tMCAO, 14-15 days after tMCAO, vs vehicle
[4] = 135 mg/kg starting 48 hours after tMCAO, 14-15 days after tMCAO, vs vehicle

CCN(CC)CCOCCOC(=O)C(CC)(CC)c1ccccc1 [Oxeladin]
infarct extent / loss of healthy brain tissue by Nissl staining ([1]; 14-15 days after tMCAO, whole hemisphere, cortex and striatum, vs Vehicle, P<0.05): significantly reduced infarct extent | infarct size by TTC staining [1]: No difference in infarct size | infarct size by TTC staining ([1]; listed as oxeladin): No significant difference in infarct size | astrogliosis (GFAP staining) [1, 3]: no differences between vehicle and oxeladin treated groups; also recorded: did not alter astrogliosis | microgliosis (Iba1 staining) [1, 3]: no differences observed | BrdU staining (area of BrdU+ cells) in the cerebral cortex [2, 4]: significantly smaller area; also recorded: significantly reduced | BrdU staining in the striatum [2, 4]: did not alter BrdU staining | BrdU positive cells in the subventricular zone (SVZ), infarcted hemisphere ([2]; 135 mg/kg, 14-15 days after tMCAO, vs vehicle): no differences in BrdU+ cells between treatment groups; also recorded: did not reveal a significant difference | cell proliferation in the brain or SVZ after tMCAO ([2]; overall conclusion): does not enhance cell proliferation
